Reference: patent publication US20070117182A1, “Nucleic acids conferring transcriptional responsiveness on the RANKL gene promoter and uses thereof” (Wisconsin Alumni Research Foundation, priority 2005, published 2007)

Columns and labels:
[1] = system: RANKL gene upstream regions D1-D5; assay: ChIP analysis of transcription factor binding to the RANKL gene in ST2 cells; type: cell-based, mouse; details: 6 hours
Description: FIG. 4. Confirmation of ChIP/chip data using ChIP. A) Linear arrangement of RANKL locus re-oriented 5′ to 3′ (left to right) indicating the positions of D5 to D1, P2, and P1/TSS. Designation of primer sets used for detection in ChIP is indicated. B) ST2 cells were treated with either vehicle or 1,25(OH)2D3 and then subjected to ChIP using antibodies to VDR, RXR or IgG. Precipitated DNA was evaluated using the primer sets identified in A.
FIG. 5. […] ST2 cells were treated with the above hormones and after 6 hours subjected to ChIP analysis using antibodies to VDR, RXR, GR, C/EBP, β, RNA pol II, and IgG. Precipitated DNA was evaluated for enrichment of the indicated regions of the RANKL gene.
FIG. 10. ChIP analysis of transcription factor binding to RL D5, the TSS and intervening regions of the RANKL locus in response to 1,25(OH)2D3, forskolin and oncostatin M (OSM). ST2 cells were treated for 6 hr with the indicated inducing agents and then subjected to ChIP analysis using antibodies to the indicated factors. Precipitated DNA was analyzed by PCR for enrichment of IS7, D5, IS6 and the TSS of the RANKL gene locus. See text for details of results.
The isolated DNA was then evaluated by PCR using primers as depicted in the diagram seen in FIG. 4a which were designed to amplify small DNA segments within the 5 regions as well as segments located at intervening sites (IS) outside the five regions.
The inventors hypothesized that GC's might perhaps enhance VDR binding to RANKL regulatory regions. […] The inventors focused on the RL-CCL region (D5) and amplified the precipitated DNA using primers to this region of the gene as well as to D4, D3 and TSS and intervening regions. […] The inventors also explored the possibility that C/EBPbeta might similarly participate in the RANKL activation process. C/EBPbeta plays a significant role in the regulation of osteoblastic genes, and is found associated with both 1,25(OH)2D3 and GC target genes.
In addition to 1,25(OH)2D3 and GCs, RANKL expression is also known to be modulated by such factors as PTH, PGE2, the gp130-activating cytokines IL-6 and OSM, as well as IL-1beta and TNFalpha. […] Forskolin was used as substitute for PTH, however, as ST2 cells are deficient in PTH receptor (PTHR). Both PTH/forskolin and PGE2 are known to induce RANKL gene expression via CREB whereas OSM functions via Stat3. […] The inventors therefore explored the possibility that the RL-CCL might represent a focal target for these inducers via either CREB or Stat3 in the RANKL gene locus. ST2 cells were treated with either vehicle, 1,25(OH)2D3, forskolin or OSM for a 6 hour period and then subjected to a ChIP analysis using antibodies to VDR, C/EBPbeta, CREB, phospho-CREB, ATF-2, ATF-4, Stat3, RNA pol II and control IgG. Isolated DNA was then subjected to amplification using primers corresponding to the D5 region (RL-CCL) of the RANKL gene. As controls, the inventors also assessed the extent to which the immunoprecipitations led to the enrichment of DNA at sites surrounding the D5 region of the RANKL gene.

[2] = system: D1-D4 regions of the RANKL gene; assay: pTK-RL(D1)-(D4) luciferase reporters in ST2 cells; type: cell-based, mouse
Description: FIG. 12. Transcriptional activities of the D1-D4 regions of the RANKL gene in the context of the TK promoter were analyzed and corresponding data is shown in FIG. 12. The D1-D4 regions of the RANKL gene were cloned into the pTK vector and termed PTK-RL(D1)-(D4). […] Cells were harvested after 24 hours and luciferase activity assessed. Luciferase was normalized using beta-gal activity. Data in FIG. 12 represent the mean of triplicate determinations (SEM).
The activity of an enhancer must be evaluated in the context of its local environment, preferentially in the context of both other enhancers and its native promoter. In the case of the RANKL gene, however, this is clearly not possible due to the numbers and the distant locations of the potential regulatory regions. […] To ensure that the viral TK promoter background was not contributing to our evaluation, the inventors cloned the mouse RANKL promoter (−100 to +65) into pGL3, inserted RL D5 and evaluated its activity in ST2 cells as well.
Transcriptional activities of the D1-D4 regions of the RANKL gene in the context of the TK promoter were analyzed and corresponding data is shown in FIG. 12. […] Cells were harvested after 24 hours and luciferase activity assessed. […]

C=C1/C(=C\C=C2/CCC[C@]3(C)[C@@H]([C@H](C)CCCC(C)(C)O)CC[C@@H]23)C[C@@H](O)C[C@@H]1O [1,25(OH)2D3]
CREB binding to the D5 region [1]: modestly increased CREB association
RNA pol II recruitment to D1-D5 sites and TSS [1]: recruited
Stat3 binding to the D5 region [1]: some Stat3 binding can be seen
VDR and RXR binding at D1-D5 ([1]; ChIP, -16, -22, -60, -69, -77 kb from TSS): clearly enriched
VDR binding to RANKL regulatory regions (D5) ([1]; agent alone): induced the binding of the VDR
luciferase activity of regions D1 through D4 ([2]; increasing concentrations, no added VDR): failed to show increased activity
response from D2 and D3 ([2]; with exogenous VDR expression vector): modest response
